Results published in US6727241B2, “Anti-inflammatory compositions and methods of use” (Chemocentryx, priority 2002, dated 2004).
Like-named read-outs stand apart in the source and are kept apart here. Blank lines part the entries; values can stand above or below the compound they belong to.

Columns and labels:
CCR1 [1] = target: T1, CCR1 (Homo sapiens, UniProt P32246); assay: Inhibition of CCR1 ligand binding (125I labeled MIP-1α binding to CCR1 expressing cells); parameters: expressed in transfected cells; host or cells: NSO murine myeloma (CCR1-NSO) or HEK 293 (CCR1-293)
T1 sequence (P32246 1-355): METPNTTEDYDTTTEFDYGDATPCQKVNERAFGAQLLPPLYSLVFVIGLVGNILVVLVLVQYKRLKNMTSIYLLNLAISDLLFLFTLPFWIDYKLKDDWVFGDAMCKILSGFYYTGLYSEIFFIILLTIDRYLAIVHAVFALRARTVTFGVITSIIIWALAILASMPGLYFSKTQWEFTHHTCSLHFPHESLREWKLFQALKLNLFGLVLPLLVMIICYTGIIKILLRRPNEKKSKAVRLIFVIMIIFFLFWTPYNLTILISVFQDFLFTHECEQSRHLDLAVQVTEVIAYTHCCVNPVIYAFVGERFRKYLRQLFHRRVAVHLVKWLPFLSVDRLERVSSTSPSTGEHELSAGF
Method: CCR1 expressing cells were centrifuged and resuspended in assay buffer (20 mM HEPES pH 7.1, 140 mM NaCl, 1 mM CaCl2, 5 mM MgCl2, and with 0.2% bovine serum albumin) to a concentration of 5.6×10^6 cells/ml (CCR1-NSO) or 2.2×10^6 cells/ml ([…].). Screening assays were set up as follows. First, 0.09 ml of cells (5×10^5 CCR1-NSO cells/well or 2×10^5 CCR1-293 cells/well) was added to the assay plates containing the compounds, giving a final concentration of ˜2-10 μM each compound. Then 0.09 ml of ^125I labeled MIP-1α (obtained from Amersham; Piscataway, N.J.) diluted in assay buffer to a final concentration of ˜50 pM, yielding ˜30,000 cpm per well, was added, the plates sealed and incubated for approximately 3 hours at 4° C. on a shaker platform. Reactions were aspirated onto GF/B glass filters pre-soaked in 0.3% polyethyleneimmine (PEI) solution, on a vacuum cell harvester (Packard Instruments; Meriden, Conn.). Scintillation fluid (50 μl; Microscint 20, Packard Instruments) was added to each well, the plates were sealed and radioactivity measured in a Top Count scintillation counter (Packard Instruments). Control wells containing either diluent only (for total counts) or excess MIP-1α or MIP-1β ([…], for non-specific binding) were used to calculate the percent of total inhibition for each set of compounds. After testing the CLIP plates, wells with 40% or greater inhibition were confirmed. If confirmed, the individual compounds of the CLIP's were tested for reactivity (deconvolution step). IC50 values are those concentrations required to reduce the binding of labeled MIP-1α to the receptor by 50%.
To identify small organic molecules that prevent the receptor CCR1 from binding ligand, an assay was employed that detected radioactive ligand (MIP-1α) binding to cells expressing exogenous CCR1 on the cell surface.
A NSO murine myeloma cell line (CCR1-NSO) and a human embryonic kidney (HEK) carcinoma cell line (CCR1-293) were constructed that constitutively expressed human CCR1 on the cell surface; these cells lack other chemokine receptors that bind MIP-1α. Equal numbers of cells were added to each well in the CLIP plate, where each pool contained 10 candidate organic compounds. The cells were then incubated with radio labeled MIP-1α. Unbound ligand was removed by washing the cells, and bound ligand was determined by quantifying radioactive counts. Cells that were incubated without any organic compound gave total counts; non-specific binding was determined by incubating the cells with unlabeled ligand and labeled ligand. Percent inhibition was determined by the equation:
% inhibition=1−[(sample cpm)−(nonspecific cpm)]/[(total cpm)−(nonspecific cpm)]×100
To ascertain a candidate compound's affinity for CCR1 as well as confirm its ability to inhibit ligand binding, inhibitory activity was titered over 1×10^−8 to 1×10^−4 M range of compound concentration. The assay was essentially the same as for the CLIP screens, except the amount of compound was varied; cell number and ligand concentration were held constant. Only those compounds that were commercially available at the time of the experiments were titered. Of the 22 candidates identified, the following 16 were subjected to dose response experiments: CCX-3343, CCX-1057, CCX-1307, CCX-1513, CCX-238, CCX-3345, CCX-3493, CCX-4425, CCX-4462, CCX-4682, CCX-469, CCX-5062, CCX-5119, CCX-541, CCX-6019 and CCX-6530.

CCR1 [2] = target: T1, CCR1; assay: Calcium mobilization in response to MIP-1α (INDO-1); type: cell-based; parameters: expressed in transfected cells; host or cells: HEK 293 (CCR1-293), pIRESpuro vector; key to MIP-1α: calcium pulse: +: pulse observed; −: no pulse observed; n.s.: non-specific signal; conditions: for MIP-1α: calcium pulse: CCR1-293 or THP-1 cells loaded with INDO-1, compound 10 to 20 μM added before MIP-1α; for Comments (inhibition of calcium signaling) / Inhibition of CCR1 calcium signaling, result in words: Table 2; for Inhibition of CCR1 calcium signaling, result in words: MIP-1α versus bradykinin
Method: (§1) To detect the release of intracellular stores of calcium, cultured cells were incubated with 3 μM of INDO-1AM dye (Molecular Probes; Eugene, Oreg.) in cell media for 45 minutes at room temperature and washed with phosphate buffered saline (PBS). After INDO-1AM loading, the cells were resuspended in flux buffer (Hank's balanced salt solution (HBSS) and 1% FBS). Calcium mobilization was measured using a Photon Technology International spectrophotometer (Photon Technology International; New Jersey) with excitation at 350 nm and dual simultaneous recording of fluorescence emission at 400 nm and 490 nm. Relative intracellular calcium levels were expressed as the 400 nm/490 nm emission ratio. Experiments were performed at 37° C. with constant mixing in cuvettes each containing 10^6 cells in 2 ml of flux buffer. The chemokine ligands may be used over a range from 1 to 100 nM. The emission ratio was plotted over time (typically 2-3 minutes). Candidate ligand blocking compounds (10 to 20 μM) were added at 10 seconds, followed by chemokines at 60 seconds (MIP-1α; R&D Systems; Minneapolis, Minn.) and control […] (bradykinin; ICN Pharmaceutical, Costa Mesa, Calif.) at 150 seconds. In some experiments, candidate blocking compounds and cells were added simultaneously, and MIP-1α was added 40 seconds later.
CCR1 is a seven transmembrane, G-protein linked receptor. A hallmark of signaling cascades induced by the ligation of such receptors is the pulse-like release of calcium ions from intracellular stores. Calcium mobilization assays were performed to determine if the candidate MIP-1α inhibitory compounds were able to also block CCR1 signaling. To be useful, candidate compounds able to inhibit specifically ligand binding and signaling were desired.
(§2) Calcium ion release in response to MIP-1α binding was measured using the cell permeable INDO-1/AM indicator, which fluoresces in the presence of free, but not chelated, calcium ions. CCR1-293 or THP-1 cells were loaded with INDO-1 and assayed for calcium release in response to MIP-1α addition. To control for specificity, a second, non-CCR1 binding […], bradykinin, was added, which also signals via a seven transmembrane receptor. Without compound, a pulse of fluorescent signal will be seen upon MIP-1α addition.

[3] = system: bradykinin-induced calcium signaling; assay: Calcium mobilization in response to bradykinin (specificity control); type: cell-based, human; parameters: key: +: pulse observed; −: no pulse observed; n.s.: non-specific signal; conditions: CCR1-293 or THP-1 cells loaded with INDO-1; compound 10 to 20 μM; bradykinin added after MIP-1α
Method: as §1, §2

[4] = CCR1-NSO cells, compound titered 1×10^−8 to 1×10^−4 M, read-out: IC50 (Inhibition Constant; μM), CCR1-MIP-1α binding
[5] = CCR1-293 cells, compound titered 1×10^−8 to 1×10^−4 M, * = partially blocked MIP-1α binding at the highest tested concentration, read-out: IC50 (Inhibition Constant; μM), CCR1-MIP-1α binding
[6] = compound titered 1×10^−8 to 1×10^−4 M, cells not given
[7] = dose response, cells not given, read-out: CCR1 affinity (MIP-1α binding)

SMILES: COC(=O)c1cc(C#N)c(Sc2c([N+](=O)[O-])cc(C(F)(F)F)cc2[N+](=O)[O-])nc1C(OC)OC [CCX-5119]
IC50 (CCR1 [1]; read-out: IC50 (Inhibition Constant; μM), CCR1-MIP-1α binding, CCR1-293 cells, compound titered 1×10^−8 to 1×10^−4 M, * = partially blocked MIP-1α binding at the highest tested concentration): 45 µM

IC50 (CCR1 [1]; [4]): 44 µM
SMILES: O=C(O)C1=C(Sc2ccc(Cl)cc2)CSC1 [CCX-4682]

IC50 (CCR1 [1]; [5]): 2 µM
SMILES: O=C(c1ccc(Cl)c(Cl)c1)C12CN3CN(CN(C3)C1)C2 [CCX-1307]

MIP-1α: calcium pulse (CCR1 [2]): −
Comments (inhibition of calcium signaling) (CCR1 [2]): Clear and specific
IC50 (CCR1 [1]; [5]): 2 µM
IC50 (CCR1 [1]; [4]): 0.6 µM
SMILES: O=C1NCCCCC1N(Cc1ccccc1F)C(=O)C(c1ccccc1)c1ccccc1 (stereo not shown) [CCX-469]
Inhibition of CCR1 calcium signaling, result in words (CCR1 [2]): able to significantly and specifically inhibit signaling from CCR1
Bradykinin: calcium pulse [3]: +

IC50 (CCR1 [1]; [5]): 2 µM
SMILES: c1ccc(C2C3=C(Nc4nc5ccccc5n42)c2ccccc2CCC3)cc1 (stereo not shown) [CCX-1080]

MIP-1α: calcium pulse (CCR1 [2]): n.s.
Comments (inhibition of calcium signaling) (CCR1 [2]): Calcium levels increased non-
Inhibition of CCR1 calcium signaling, result in words (CCR1 [2]): non-specific effects on calcium levels
IC50 (CCR1 [1]; [4]): 0.4 µM
SMILES: Cc1ccc(C(/C(Cl)=C(\Cl)C(=O)O)c2ccc(C)cc2C)c(C)c1 [CCX-541]
Bradykinin: calcium pulse [3]: n.s.

IC50 (CCR1 [1]; [5]): 2 µM
SMILES: CC[n+]1c(/C=C/C=C2/N(C)c3ccccc3C2(C)C)ccc2c1c1cc(Br)ccc1n2C [CCX-2324]

IC50 (CCR1 [1]; [4]): 25 µM
SMILES: O=C(NN(Cc1c(F)cccc1Cl)c1ccccc1)C(Cl)(Cl)Cl [CCX-6019]

IC50 (CCR1 [1]; [7]): ~2 µM
SMILES: CC(=O)C1=C(O)C(=O)N(c2ccc(Br)cc2)C1c1ccc(F)cc1 (stereo not shown) [CCX-5062]
Dose-response inhibition of MIP-1α binding, result in words (CCR1 [1]; [6]): failed to completely inhibit MIP-1α binding at the highest tested concentration

IC50 (CCR1 [1]; [4]): 0.36 µM
SMILES: O=C(O)c1ccc2c(c1)C1C=CCC1C(C(=O)O)N2 (stereo not shown) [CCX-1959]

MIP-1α: calcium pulse (CCR1 [2]): +
Comments (inhibition of calcium signaling) (CCR1 [2]): No inhibition.
IC50 (CCR1 [1]; [5]): 18 µM
IC50 (CCR1 [1]; [4]): 1.7 µM
SMILES: S=c1[nH]nc(-c2ccc(Cl)cc2)n1-c1cccnc1 [CCX-3493]
Inhibition of CCR1 calcium signaling, result in words (CCR1 [2]): did not affect signaling, whether MIP-1α or bradykinin induced
Bradykinin: calcium pulse [3]: +

IC50 (CCR1 [1]; [5]): 2 µM
SMILES: O=C(C[n+]1ccc(-c2ccccc2)cc1)Nc1ccc([N+](=O)[O-])cc1 [CCX-1057]

IC50 (CCR1 [1]; [7]): ~2 µM
SMILES: CC1CCC(C(C)C)C(OCC(O)CN2CCN(c3ccc(F)cc3)CC2)C1 (stereo not shown) [CCX-3343]
Dose-response inhibition of MIP-1α binding, result in words (CCR1 [1]; [6]): failed to completely inhibit MIP-1α binding at the highest tested concentration

IC50 (CCR1 [1]; [7]): ~2 µM
SMILES: CC1CCC(C(C)C)C(OCC(O)CN2CCC(Cc3ccccc3)CC2)C1 (stereo not shown) [CCX-3345]
Dose-response inhibition of MIP-1α binding, result in words (CCR1 [1]; [6]): failed to completely inhibit MIP-1α binding at the highest tested concentration
